Assays:
[1] = doses up to 10,000 IU/day; cited from earlier work
[2] = tested on: human pancreatic progenitor cells; assay: Inverted microscopy of human ductal/progenitor tissue cultures (Example 4); format: cell-based
[3] = tested on: streptozocin-induced diabetic mouse; assay: Streptozocin-induced diabetic mouse (Example 6); format: in vivo; details: streptozocin mice; for mean reduction in glucose: from baseline, placebo 9.5%
Source text: The streptozocin-induced diabetic mouse is a convenient animal model of type 1 diabetes because researchers are able to chemically induce diabetes under controlled conditions rather than waiting for mice to become diabetic naturally or by forcing diabetes through prescribed obesity. Based on experience with the streptozocin model in the rat, a high degree of variability was anticipated for the induction of the disease in mice and therefore 60 mice were induced with streptozocin. Mice were injected intraperitoneally with streptozocin at 40 mg/kg in citrate buffer, pH4.5, on 5 consecutive days in an attempt to render them diabetic. A mouse was considered diabetic once its blood glucose level was greater than 16.7 mmol/L (300 mg/dL) for at least 1 week. If the blood glucose level of any animal became too high (>400 mg/dL) the animal was treated with an effective amount of insulin. In this example, 60 male mice, ranging from 6-8 weeks old at the outset of the study, were treated with streptozocin as described above. Those mice that were declared diabetic were then used to test the effectiveness of HIP2 as compared to other test agents.
Animals were group housed in compliance with the National Research Council “Guide for the Care and Use of Laboratory Animals”. The animals received 12 hours light/12 hours dark, except when room lights were turned on during the dark cycle to accommodate study procedures. Room temperature was maintained between 18 to 26° C. at all times. Relative humidity was maintained between 30-70% at all times. All animals were given access to Harlan Teklad Rodent Diet or equivalent and tap water via water bottle. Animals were allowed to acclimate to their new environment for a minimum of 7 days prior to first dosing.
Mice were randomly divided and assigned to study groups. Each study group was assigned treatment with one of 5 test agents (see Treatment section below). Prior to being treated, each mouse was tested for diabetes via monitoring their blood glucose levels. After confirmation that the mice were diabetic (blood glucose levels greater than 16.7 mmol/L (300 mg/dL) for at least 1 week) the mice were dosed with their respective test agent.
Each study group received doses of one of the following test agents: HIP2, HIP1, HIP, Hamster INGAP (SEQ ID NO:1) or isotonic saline “Vehicle” (0.9% NaCl) (negative control). Mice were given doses of their respective agent interperitoneally twice daily (am and pm, +/−2 hours for each administration) at 250 ug/dose, in 100 ul dose volume, for 28 consecutive days. Test agents were prepared once daily by dissolving the appropriate amount of test agent in isotonic saline to result in a 2.5 mg/ml solution. Blood glucose levels were tested every 3 days, at the same time each day, using a glucometer. If the blood glucose level in any animal became too high, the animal was treated with insulin. At the end of the treatment, all surviving animals were euthanized by CO2 asphyxiation following terminal blood collection. Blood samples were collected under CO2 cardiocentesis. The plasma was separated and then frozen at −80° C. For histological analysis, the pancreas from each mouse was removed and snap-frozen.
Blood glucose levels are measured every 3 days and tracked to evaluate differences in glucose levels.

[4] = tested on: pancreatic islets of treated mice; assay: Quantitative immunohistochemistry image analysis of mouse pancreata (Example 7); format: in vivo
Source text: The islet mass of the placebo group was 854,362 μm (2) compared with 2,161,782 μm (2) in HIP-treated mice.
Islet size was not different between HIP treated and control group, whereas, islet number and mass was increased.

type 1 diabetes patients = details: single course; after onset of type 1 diabetes, some patients; cited from earlier work
diabetic patients = details: cited from earlier work

**Q.** For `C=C1CC[C@H](O)C/C1=C/C=C1\CCC[C@]2(C)[C@@H]([C@H](C)CCCC(C)C)CC[C@@H]12` [Vitamin D, cholecalciferol], which adverse effects [1] is on record?
**A.** No adverse effects

**Q.** Which results are given for “HIP: Human proIslet Peptide, 15-mer human counterpart of the hamster INGAP peptide (SEQ ID NO:2) (IGLHDPTQGTEPNGE; Fragment of naturally occurring human REG3 protein)”?
**A.** morphology of progenitor tissue cultures (FIG. 7A) ([2]; day 2 of treatment (day 12)): forming a nidus of new insulin producing islets; morphology of progenitor tissue cultures (FIG. 7B) ([2]; day 6 of treatment (day 18)): forming insulin producing islet like structure; overall insulin requirements lower compared to controls [3]: 32%; insulin requirements (and rate of decrease) ([3]; compared to placebo): significant reduction; mean reduction in glucose [3]: 26.9%; islet size vs placebo/control ([4]; mouse, in vivo): not statistically different; number of islets counted greater than placebo group ([4]; p=0.022): 62%; total islet mass greater than placebo group ([4]; p=0.05): 153%; islets counted ([4]; placebo 280): 454; islet mass ([4]; placebo 854,362): 2,161,782 μm (2); total islet mass (qualitative) ([4]; vs control): increased; total islet number (qualitative) ([4]; vs control): increased

**Q.** Which “duration of improvement in C-peptide responses and clinical parameters” value (type 1 diabetes patients) does the source give for “hOKT3gamma1 (Ala-Ala): anti-CD3 monoclonal antibody” here?
**A.** at least 2 years

**Q.** With “hamster INGAP: non-human islet neogenesis associated peptide, hamster sequence, positive control (SEQ ID NO:1) (IGLHDPSHGTLPNGS; Fragment of naturally occurring hamster INGAP protein)” as the compound, how does the “overall insulin requirements lower compared to controls” value [3] read?
**A.** 14%

**Q.** And the “mean reduction in glucose” value [3]?
**A.** 20%

**Q.** And the “patients with a >50% increase in GAD65 antibody titers” value (diabetic patients; 300 mg/day, Phase II)?
**A.** 22 % of the patients

**Q.** And the C-peptide secretion (diabetic patients; 600 mg/day)?
**A.** increase in C-peptide secretion

**Q.** What about the tolerability (diabetic patients; Phase I and II trials) of the same compound?
**A.** well tolerated

**Q.** What about the “drop out due to injection site reactions” value (diabetic patients; Phase II trial, diabetic patients) of the same compound?
**A.** high drop out

**Q.** What about the effectiveness (diabetic patients; Phase II trial) of the same compound?
**A.** Little effectiveness

**Q.** And the “hemoglobin A1C” value (diabetic patients; type 2 diabetes patients)?
**A.** fell

From patent US8785400B2, “Methods and compositions relating to islet cell neogenesis” (CureDM Group Holdings, LLC, priority 2006, dated 2014)
